One experiment concerns the target E. coli MurF (Escherichia coli, UniProt P11880). Put plainly: biochemical. As to conditions: Table S1, PKIS screening; for remaining activity at 100 µM: 0.25 h, read-out: RA [%] at 100 µM MurF.
Another experiment concerns the target E. coli MurD (Escherichia coli, UniProt P14900). Description: biochemical. To be noted: 0.25 h, Table S1, PKIS screening; read-out: RA [%] at 100 µM MurD. An outline of the steps:
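Orthophosphate released by E. coli MurD quantified by malachite green (Biomol green) absorbance at 650 nm after 15 min at 37 °C. Residual activity relative to DMSO-only controls.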

For the next experiment, the target named is E. coli MurC (Escherichia coli, UniProt P17952). Description: Malachite green inhibition assay, MurC. To be noted: Table S1, PKIS screening; for remaining activity at 100 µM: 0.25 h, read-out: RA [%] at 100 µM MurC. The experiment is classed as biochemical.
E. coli MurC, sequence (P17952 whole entry): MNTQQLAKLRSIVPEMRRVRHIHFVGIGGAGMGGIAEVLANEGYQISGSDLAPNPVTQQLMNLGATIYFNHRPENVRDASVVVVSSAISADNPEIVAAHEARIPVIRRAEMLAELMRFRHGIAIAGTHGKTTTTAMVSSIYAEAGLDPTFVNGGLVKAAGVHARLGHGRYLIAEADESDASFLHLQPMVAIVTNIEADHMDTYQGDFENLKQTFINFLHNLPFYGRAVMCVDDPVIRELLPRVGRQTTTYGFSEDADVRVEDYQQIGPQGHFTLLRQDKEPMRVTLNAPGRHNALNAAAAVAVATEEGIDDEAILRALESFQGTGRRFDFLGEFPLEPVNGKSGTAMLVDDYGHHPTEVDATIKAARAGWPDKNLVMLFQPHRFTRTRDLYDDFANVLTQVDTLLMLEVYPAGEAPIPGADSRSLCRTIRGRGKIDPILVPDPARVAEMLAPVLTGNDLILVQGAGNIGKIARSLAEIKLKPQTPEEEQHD

E. coli MurF, sequence (P11880 whole entry): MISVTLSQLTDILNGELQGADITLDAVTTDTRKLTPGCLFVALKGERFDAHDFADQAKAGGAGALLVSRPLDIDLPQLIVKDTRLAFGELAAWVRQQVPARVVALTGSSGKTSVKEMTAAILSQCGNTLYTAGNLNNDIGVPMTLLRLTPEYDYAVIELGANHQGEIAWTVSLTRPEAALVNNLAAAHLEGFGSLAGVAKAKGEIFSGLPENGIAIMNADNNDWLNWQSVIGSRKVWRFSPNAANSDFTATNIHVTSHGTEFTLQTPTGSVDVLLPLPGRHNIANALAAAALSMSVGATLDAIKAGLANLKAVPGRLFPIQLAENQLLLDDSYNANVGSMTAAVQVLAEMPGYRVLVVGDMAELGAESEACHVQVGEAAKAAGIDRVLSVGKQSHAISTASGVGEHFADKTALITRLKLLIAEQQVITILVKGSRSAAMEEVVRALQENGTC
E. coli MurD, sequence (P14900 whole entry): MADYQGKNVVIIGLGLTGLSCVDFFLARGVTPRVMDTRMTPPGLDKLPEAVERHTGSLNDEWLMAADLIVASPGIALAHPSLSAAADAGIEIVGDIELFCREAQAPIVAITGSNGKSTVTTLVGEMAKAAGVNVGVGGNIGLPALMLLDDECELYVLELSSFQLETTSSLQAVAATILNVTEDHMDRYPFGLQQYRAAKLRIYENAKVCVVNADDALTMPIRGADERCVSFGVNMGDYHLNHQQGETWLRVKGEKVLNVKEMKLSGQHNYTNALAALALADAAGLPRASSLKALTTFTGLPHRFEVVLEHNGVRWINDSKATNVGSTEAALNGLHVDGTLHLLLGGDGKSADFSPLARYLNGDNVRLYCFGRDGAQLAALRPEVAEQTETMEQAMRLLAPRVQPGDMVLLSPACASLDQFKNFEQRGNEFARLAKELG

In the case of `COc1cc(C=NNc2ncnc3c2cnn3-c2ccccc2)ccc1O` [GW513184X], the remaining activity at 100 µM was 78% at E. coli MurF, 86% on E. coli MurD and 89% at E. coli MurC.
Take `CCn1c(-c2nonc2N)nc2ccccc21` [GW549034X]: the “RA [%] at 100 µM MurF” value at E. coli MurF was found to be 93%. The remaining activity at 100 µM at E. coli MurD stood at 100%. Moreover, the “RA [%] at 100 µM MurC” value on E. coli MurC is 70%.
As to `c1ccc(Nc2ncc(-c3ccccc3)o2)cc1` [GW549390X], the values for the remaining activity at 100 µM on E. coli MurF, on E. coli MurD and at E. coli MurC were 93%, 92% and 85%, respectively.
The like results for `N#Cc1ccc2c(-c3ccnc(NC4CC4)n3)c(-c3ccc(F)cc3)nn2c1` [GW561436X] were, in that order, 77%, 76% and 87%.
As to `CS(=O)(=O)CCNCc1coc(-c2ccc3ncnc(Nc4ccc(OCc5ccccc5)cc4)c3c2)c1` [GW566221B], the values for the remaining activity at 100 µM at E. coli MurF, at E. coli MurD and at E. coli MurC were 82%, 69% and 69%, respectively.
On to `CS(=O)(=O)CCNCc1ccc(-c2ccc3ncnc(Nc4ccc(OCc5cccc(C(F)(F)F)c5)cc4)c3c2)o1` [GW567808A], for which the remaining activity at 100 µM was 100% at E. coli MurF, 34% on E. coli MurD and 56% on E. coli MurC.
For the compound `Nc1nccc(-c2c(-c3ccc(F)cc3)nn3cc(C(F)(F)F)ccc23)n1` [GW568326X], the remaining activity at 100 µM came out at 78% at E. coli MurF, 90% on E. coli MurD and 68% on E. coli MurC.
The like results for `OCCCNc1nccc(-c2c(-c3ccc(F)cc3)nn3cc(C(F)(F)F)ccc23)n1` [GW569293E] were, in that order, 72%, 89% and 54%.
On the same counts, the results for `NS(=O)(=O)c1ccc(Nc2ncc(-c3ccccc3)o2)cc1` [GW572399X] are 74%, 100% and 80%.
For the compound `CCN(CC)S(=O)(=O)c1ccc(OC)c(Nc2ncc(-c3ccccc3)o2)c1` [GW572401X], the remaining activity at 100 µM is 82% at E. coli MurF, 60% on E. coli MurD and 63% on E. coli MurC.
On the same counts, the results for `N#Cc1c(NC(=O)c2ccccc2F)sc2c1CCCC2` [GW572738X] are 100%, 91% and 88%.
The like results for `CS(=O)(=O)CCNCc1ccc(-c2ccc3ncnc(Nc4ccc(OCc5ccccc5)c(C(F)(F)F)c4)c3c2)o1` [GW574782A] were, in that order, 100%, 60% and 83%.
On the same counts, the results for `CS(=O)(=O)CCNCc1ccc(-c2ccc3ncnc(Nc4ccc(OCc5ccccc5)c(Cl)c4)c3c2)o1` [GW574783B] are 79%, 37% and 58%.
For the compound `COc1ccc(Nc2ncc(-c3ccccc3)o2)cc1OC` [GW575533A], the remaining activity at 100 µM on E. coli MurF was 71%; at E. coli MurD, 93%; at E. coli MurC, 79%.
On to `Cc1ccc(Nc2ccnc(Nc3cccc(C(N)=O)c3)n2)cc1O` [GW575808A], for which the remaining activity at 100 µM on E. coli MurF amounted to 100%; on E. coli MurD it was 89%; at E. coli MurC, 100%.
For the compound `CS(=O)(=O)CCNCc1ccc(-c2ccc3ncnc(Nc4ccc(OCc5cccc(F)c5)c(C(F)(F)F)c4)c3c2)o1` [GW576484X], the remaining activity at 100 µM on E. coli MurF turned out to be 100%; on E. coli MurD, 55%; on E. coli MurC, 100%.
`[O-][S+]1CCN(Cc2ccc(-c3ccc4ncnc(Nc5ccc(OCc6cccc(F)c6)c(Cl)c5)c4c3)o2)CC1` [GW576609A]: the remaining activity at 100 µM on E. coli MurF was found to be 78%; on E. coli MurD it was 54%; at E. coli MurC, 71%.
The like results for `[O-][S+]1CCN(Cc2ccc(-c3ccc4ncnc(Nc5ccc(OCc6ccccc6)c(F)c5)c4c3)o2)CC1` [GW576924A] were, in that order, 58%, 85% and 39%.
On the same counts, the results for `COc1ccccc1Nc1ncc(-c2ccccc2)o1` [GW577921A] are 76%, 84% and 71%.
The like results for `CS(=O)(=O)CCNCc1ccc(-c2ccc3ncnc(Nc4ccc(OCc5ccccc5)c(Br)c4)c3c2)o1` [GW580496A] were, in that order, 90%, 48% and 95%.
As for `CCS(=O)(=O)c1ccc(OC)c(Nc2ncc(-c3cccc(OC)c3)o2)c1` [GW580509X], the remaining activity at 100 µM on E. coli MurF came to 93%; on E. coli MurD, 82%; at E. coli MurC, 100%.
On the same counts, the results for `NC(=O)c1ccc2c(-c3ccnc(NCCCO)n3)c(-c3ccc(F)cc3)nn2c1` [GW581744X] are 79%, 74% and 73%.
The like results for `[O-][S+]1CCN(Cc2ccc(-c3ccc4ncnc(Nc5ccc(OCc6ccccc6)c(Cl)c5)c4c3)o2)CC1` [GW583373A] were, in that order, 60%, 59% and 62%.
On the same counts, the results for `COC(=O)Nc1nc2ccc(Oc3ccc(NC(=O)Nc4cccc(Cl)c4)cc3)cc2[nH]1` [GW589961A] are 83%, 81% and 77%.
Regarding `COC(=O)Nc1nc2ccc(Sc3ccc(NC(=O)Nc4cc(C(F)(F)F)ccc4F)cc3)cc2[nH]1` [GW607049C], the remaining activity at 100 µM came to 91% on E. coli MurF, 80% on E. coli MurD and 62% on E. coli MurC.
As to `Cc1nnc(-c2ccc(C)c(-c3ccc(C(=O)Nc4cccc(C#N)c4)cc3)c2)o1` [GW607117X], the remaining activity at 100 µM at E. coli MurF is 90%; at E. coli MurD, 100%; at E. coli MurC it was 72%.
The like results for `COc1cc(Nc2nccc(Nc3ccc4c(C)n[nH]c4c3)n2)cc(OC)c1OC` [GW612286X] were, in that order, 100%, 94% and 86%.
The like results for `O=S(=O)(CCOCc1ccc(-c2ccc3ncnc(Nc4ccc(OCc5cccc(F)c5)c(Cl)c4)c3c2)o1)c1ccccc1` [GW615311X] were, in that order, 100%, 91% and 97%.
In the case of `CS(=O)(=O)CCN(CC#N)Cc1ccc(-c2ccc3ncnc(Nc4ccc(OCc5cccc(F)c5)c(Cl)c4)c3c2)o1` [GW616030X], the remaining activity at 100 µM at E. coli MurF worked out at 80%; at E. coli MurD, 59%; at E. coli MurC it was 76%.
The like results for `CCS(=O)(=O)c1ccc(OC)c(Nc2ncc(-c3cccc(C(C)=O)c3)o2)c1` [GW621431X] were, in that order, 73%, 93% and 68%.
On the same counts, the results for `CCCN(CCS(C)(=O)=O)Cc1ccc(-c2ccc3ncnc(Nc4ccc(OCc5cccc(F)c5)c(Cl)c4)c3c2)o1` [GW621823A] are 96%, 42% and 36%.
On the same counts, the results for `CCS(=O)(=O)c1ccc(OC)c(Nc2ncc(-c3cccc(F)c3)o2)c1` [GW621970X] are 89%, 55% and 76%.
`CCS(=O)(=O)c1ccc(OC)c(Nc2ncc(-c3ccccc3Cl)o2)c1` [GW622055X]: the remaining activity at 100 µM is 80% on E. coli MurF, 65% on E. coli MurD and 74% on E. coli MurC.
On the same counts, the results for `COc1cc(Nc2ncc(-c3ccccc3)o2)cc(OC)c1OC` [GW627512B] are 100%, 72% and 98%.
For the compound `N#Cc1cccc(Nc2ncc(-c3ccccc3)o2)c1` [GW627834A], the remaining activity at 100 µM worked out at 85% at E. coli MurF, 75% at E. coli MurD and 78% on E. coli MurC.
As to `COc1cc(Nc2ncc(-c3ccccc3)o2)cc(OC)c1` [GW631581B], the remaining activity at 100 µM is 97% on E. coli MurF, 79% on E. coli MurD and 64% on E. coli MurC.
The like results for `Cc1cccc(Nc2ncc(-c3ccccc3)o2)c1` [GW632046X] were, in that order, 97%, 84% and 100%.
The like results for `COc1ccc(COc2ccc(Cc3cnc(N)nc3N)cc2OC)cc1` [GW632580X] were, in that order, 99%, 89% and 88%.
Regarding `O=S(=O)(CCNCc1ccc(-c2ccc3ncnc(Nc4ccc(OCc5cccc(F)c5)c(Cl)c4)c3c2)o1)c1ccccc1` [GW633459A], the remaining activity at 100 µM at E. coli MurF is 84%; on E. coli MurD, 80%; at E. coli MurC, 100%.
The like results for `COc1ccc(-c2coc3ncnc(N)c23)cc1` [GW642125X] were, in that order, 85%, 83% and 100%.
Take `COc1ccc(-c2cc3c(N)ncnc3o2)cc1` [GW642138X]: the results for the remaining activity at 100 µM on E. coli MurF, at E. coli MurD and on E. coli MurC were 81%, 93% and 74%, respectively.
